Results reported in DBAASP.
≈ marks a conversion by molar mass, not a printed value. Each block holds one compound with its values, some of them ahead of it.

Experiments:
Experiment in all cases: ≥ marks a high value that may be exact or a test limit, other limits are often not marked, values filed in µg/mL are converted to µM
[1] = tested on: Escherichia coli NCTC 10418
[2] = tested on: Staphylococcus aureus NCTC 12981
[3] = tested on: Bacillus licheniformis X39
[4] = tested on: Psychrobacter faecalis X29
[5] = tested on: Rhodococcus rhodochrous X15
[6] = tested on: Staphylococcus aureus ATCC 2592
[7] = tested on: Staphylococcus carnosus KHS
[8] = tested on: Escherichia coli
[9] = tested on: Listeria innocua
[10] = tested on: Micrococcus luteus A270
[11] = tested on: Salmonella enterica subsp. enterica serovar Enteritidis
[12] = tested on: Micrococcus luteus ATCC 9341
[13] = tested on: Pseudomonas aeruginosa H1001

MIC [8]: 9 µM (≈ 11.1 µg/mL) | MIC [9]: 1 µM (≈ 1.24 µg/mL) | MIC [10]: 1 µM (≈ 1.24 µg/mL) | MIC [11]: 9 µM (≈ 11.1 µg/mL)
SMILES: C[C@@H](O)[C@H](NC(=O)[C@H](CCCCN)NC(=O)[C@@H](NC(=O)[C@@H](NC(=O)[C@@H]1CCCN1)[C@@H](C)O)[C@@H](C)O)C(=O)N[C@@H](Cc1ccc(O)cc1)C(=O)N[C@@H](Cc1ccccc1)C(=O)N1CCC[C@H]1C(=O)N[C@@H](Cc1cnc[nH]1)C(=O)N[C@@H](Cc1ccccc1)C(=O)O [PTTKTYFPHF]

MIC [12]: 3.1 µM (≈ 3.36 µg/mL) | MIC [13]: ≥ 231 µM
SMILES: NC(=O)[C@H](CCCN=C(N)N)NC(=O)[C@H](CCCN=C(N)N)NC(=O)[C@H](Cc1c[nH]c2ccccc12)NC(=O)[C@@H]1CCCN1C(=O)[C@H](Cc1c[nH]c2ccccc12)NC(=O)[C@H](Cc1c[nH]c2ccccc12)NC(=O)[C@@H]1CCCN1 [PWWPWRR]

MIC [13]: 1.47 µM (≈ 2 µg/mL)
SMILES: CC[C@H](C)[C@H](NC(=O)[C@H](CCCN=C(N)N)NC(=O)[C@H](Cc1ccc(O)cc1)NC(=O)[C@H](Cc1c[nH]c2ccccc12)NC(=O)[C@H](CCCN=C(N)N)NC(=O)[C@@H](NC(=O)[C@@H](N)CCCN=C(N)N)C(C)C)C(=O)N[C@@H](Cc1ccccc1)C(=O)N[C@@H](Cc1ccc(O)cc1)C(N)=O [RVRWYRIFY]

The next lines start with the compound.

SMILES: NC(=O)[C@H](Cc1ccccc1)NC(=O)[C@H](CCCN=C(N)N)NC(=O)[C@H](Cc1ccccc1)NC(=O)[C@H](CCCN=C(N)N)NC(=O)[C@@H](N)Cc1ccccc1 [FRFRF]
MIC [1]: ≥ 166 µM | MIC [2]: ≥ 166 µM

SMILES: CC[C@H](C)[C@H](NC(=O)CN)C(=O)N[C@@H](Cc1ccccc1)C(=O)N[C@@H](CO)C(=O)N[C@@H](CC(C)C)C(=O)N[C@@H](Cc1ccccc1)C(=O)N[C@@H](CCCCN)C(=O)N[C@@H](C)C(=O)NCC(=O)N[C@@H](C)C(=O)N[C@@H](CCCCN)C(=O)N[C@@H](Cc1ccccc1)C(=O)N[C@@H](Cc1ccccc1)C(=O)NCC(=O)N[C@@H](CCCCN)C(=O)N[C@@H](Cc1cnc[nH]1)C(=O)N[C@@H](CC(C)C)C(=O)N[C@@H](CC(C)C)C(=O)N[C@@H](CCCCN)C(=O)N[C@@H](CCC(N)=O)C(=O)N[C@@H](C)C(=O)NCC(=O)N[C@@H](CCCCN)C(=O)N[C@@H](C)C(=O)NCC(=O)N[C@@H](C)C(=O)N[C@@H](CCC(=O)O)C(=O)N[C@@H](Cc1cnc[nH]1)C(=O)N[C@@H](CC(C)C)C(=O)N[C@@H](C)C(=O)N[C@H]1CSSC[C@@H](C(=O)O)NC(=O)[C@H](CCC(N)=O)NC(=O)[C@H](CC(N)=O)NC(=O)[C@H]([C@@H](C)O)NC(=O)[C@H](C)NC(=O)[C@H](CCCCN)NC1=O [GIFSLFKAGAKFFGKHLLKQAGKAGAEHLACKATNQC]
MIC [3]: 3.2 µM (≈ 12.4 µg/mL) | MIC [4]: 1.6 µM (≈ 6.22 µg/mL) | MIC [5]: 0.8 µM (≈ 3.11 µg/mL) | MIC [6]: 1.6 µM (≈ 6.22 µg/mL) | MIC [7]: 3.2 µM (≈ 12.4 µg/mL)

SMILES: CC(C)C[C@H](NC(=O)[C@H](CCCN=C(N)N)NC(=O)[C@@H]1CCCN1C(=O)[C@H](CCCN=C(N)N)NC(=O)[C@H](CCCN=C(N)N)NC(=O)[C@@H]1CCCN1C(=O)[C@@H](N)CCCN=C(N)N)C(=O)N1CCC[C@H]1C(=O)N[C@@H](Cc1c[nH]c2ccccc12)C(N)=O [RPRRPRLPW]
MIC [1]: ≥ 104 µM | MIC [2]: ≥ 104 µM
